# According to PubChem BioAssay (NCI):
#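 Exposure lasted 48 hours, with cells grown in 96-well plates and compounds tested at five concentrations. Here, GI50 denotes the concentration required for 50% inhibition of growth. TGI is the concentration that stops growth completely.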
# Experiments:
# Experiment in all cases: inhibition of tumour cell growth, NCI panel, 48 h
# 786-0 renal = test system: 786-0 renal
# HCT-116 colon = test system: HCT-116 colon
# HT29 colon = test system: HT29 colon
# PC-3 prostate = test system: PC-3 prostate
# M14 melanoma = test system: M14 melanoma
# SNB-19 CNS = test system: SNB-19 CNS
# TK-10 renal = test system: TK-10 renal
# NCI-H226 lung = test system: NCI-H226 lung
# DU-145 prostate = test system: DU-145 prostate
# SK-MEL-28 melanoma = test system: SK-MEL-28 melanoma
# MDA-MB-435 = test system: MDA-MB-435
# COLO 205 colon = test system: COLO 205 colon
# MOLT-4 leukemia = test system: MOLT-4 leukemia
# SF-539 CNS = test system: SF-539 CNS
# NCI-H522 lung = test system: NCI-H522 lung
# KM12 colon = test system: KM12 colon
# LOX IMVI melanoma = test system: LOX IMVI melanoma
# OVCAR-5 ovarian = test system: OVCAR-5 ovarian
# NCI/ADR-RES ovarian = test system: NCI/ADR-RES ovarian
# MALME-3M melanoma = test system: MALME-3M melanoma
# RPMI-8226 leukemia = test system: RPMI-8226 leukemia
# SN12C renal = test system: SN12C renal
# BT-549 breast = test system: BT-549 breast
# K-562 leukemia = test system: K-562 leukemia
# SF-268 CNS = test system: SF-268 CNS
# HCC-2998 colon = test system: HCC-2998 colon
# NCI-H23 lung = test system: NCI-H23 lung
# MDA-MB-231 breast = test system: MDA-MB-231 breast
# A549 NSCLC = test system: A549 NSCLC
# SW-620 colon = test system: SW-620 colon
# MCF7 breast = test system: MCF7 breast
# U251 CNS = test system: U251 CNS
# IGROV1 ovarian = test system: IGROV1 ovarian
# UACC-257 melanoma = test system: UACC-257 melanoma
# UACC-62 melanoma = test system: UACC-62 melanoma
# T-47D breast = test system: T-47D breast
# OVCAR-4 ovarian = test system: OVCAR-4 ovarian
# HL-60(TB) leukemia = test system: HL-60(TB) leukemia
# OVCAR-8 ovarian = test system: OVCAR-8 ovarian
# ACHN renal = test system: ACHN renal
# MDA-N = test system: MDA-N
# HOP-92 NSCLC = test system: HOP-92 NSCLC
# RXF 393 renal = test system: RXF 393 renal
# SK-MEL-5 melanoma = test system: SK-MEL-5 melanoma
# OVCAR-3 ovarian = test system: OVCAR-3 ovarian
# SF-295 CNS = test system: SF-295 CNS
# CAKI-1 renal = test system: CAKI-1 renal
# SR leukemia = test system: SR leukemia
# A498 renal = test system: A498 renal
# EKVX NSCLC = test system: EKVX NSCLC
# CCRF-CEM leukemia = test system: CCRF-CEM leukemia
# HS 578T breast = test system: HS 578T breast
# SK-MEL-2 melanoma = test system: SK-MEL-2 melanoma
# SNB-75 CNS = test system: SNB-75 CNS
# NCI-H460 lung = test system: NCI-H460 lung
# UO-31 renal = test system: UO-31 renal
# HCT-15 colon = test system: HCT-15 colon
# SK-OV-3 ovarian = test system: SK-OV-3 ovarian
# HOP-62 NSCLC = test system: HOP-62 NSCLC
compound,measurement,setting,value
COc1c2occc2cc2ccc(=O)oc12,TGI,786-0 renal,> 100 µM
same,TGI,HCT-116 colon,> 100 µM
same,GI50,HT29 colon,> 100 µM
same,TGI,HT29 colon,> 100 µM
same,TGI,PC-3 prostate,> 100 µM
same,TGI,M14 melanoma,> 100 µM
same,TGI,SNB-19 CNS,> 100 µM
same,TGI,TK-10 renal,> 100 µM
same,GI50,NCI-H226 lung,> 100 µM
same,TGI,NCI-H226 lung,> 100 µM
same,TGI,DU-145 prostate,> 100 µM
same,TGI,SK-MEL-28 melanoma,> 100 µM
same,TGI,MDA-MB-435,> 100 µM
same,TGI,COLO 205 colon,> 100 µM
same,TGI,MOLT-4 leukemia,> 100 µM
same,TGI,SF-539 CNS,> 100 µM
same,GI50,NCI-H522 lung,> 100 µM
same,TGI,NCI-H522 lung,> 100 µM
same,GI50,KM12 colon,> 100 µM
same,TGI,KM12 colon,> 100 µM
same,TGI,LOX IMVI melanoma,> 100 µM
same,TGI,OVCAR-5 ovarian,> 100 µM
same,GI50,NCI/ADR-RES ovarian,> 100 µM
same,TGI,NCI/ADR-RES ovarian,> 100 µM
same,GI50,MALME-3M melanoma,> 100 µM
same,TGI,MALME-3M melanoma,> 100 µM
same,TGI,RPMI-8226 leukemia,> 100 µM
same,TGI,SN12C renal,> 100 µM
same,TGI,BT-549 breast,> 100 µM
same,TGI,K-562 leukemia,> 100 µM
same,GI50,SF-268 CNS,> 100 µM
same,TGI,SF-268 CNS,> 100 µM
same,TGI,HCC-2998 colon,> 100 µM
same,TGI,NCI-H23 lung,> 100 µM
same,TGI,MDA-MB-231 breast,> 100 µM
same,TGI,A549 NSCLC,> 100 µM
same,TGI,SW-620 colon,> 100 µM
same,TGI,MCF7 breast,> 100 µM
same,TGI,U251 CNS,> 100 µM
same,GI50,IGROV1 ovarian,> 100 µM
same,TGI,IGROV1 ovarian,> 100 µM
same,TGI,UACC-257 melanoma,> 100 µM
same,TGI,UACC-62 melanoma,> 100 µM
same,TGI,T-47D breast,> 100 µM
same,TGI,OVCAR-4 ovarian,> 100 µM
same,TGI,HL-60(TB) leukemia,> 100 µM
same,GI50,OVCAR-8 ovarian,> 100 µM
same,TGI,OVCAR-8 ovarian,> 100 µM
same,TGI,ACHN renal,> 100 µM
same,TGI,MDA-N,> 100 µM
same,TGI,HOP-92 NSCLC,> 100 µM
same,GI50,RXF 393 renal,> 100 µM
same,TGI,RXF 393 renal,> 100 µM
same,TGI,SK-MEL-5 melanoma,> 100 µM
same,TGI,OVCAR-3 ovarian,> 100 µM
same,TGI,SF-295 CNS,> 100 µM
same,TGI,CAKI-1 renal,> 100 µM
same,TGI,SR leukemia,> 100 µM
same,TGI,A498 renal,> 100 µM
same,GI50,EKVX NSCLC,96.9 µM
same,TGI,EKVX NSCLC,> 100 µM
same,TGI,CCRF-CEM leukemia,> 100 µM
same,GI50,HS 578T breast,> 100 µM
same,TGI,HS 578T breast,> 100 µM
same,TGI,SK-MEL-2 melanoma,> 100 µM
same,GI50,SNB-75 CNS,55.1 µM
same,TGI,SNB-75 CNS,> 100 µM
same,TGI,NCI-H460 lung,> 100 µM
same,TGI,UO-31 renal,> 100 µM
same,TGI,HCT-15 colon,> 100 µM
same,TGI,SK-OV-3 ovarian,> 100 µM
same,TGI,HOP-62 NSCLC,> 100 µM
C[C@H]1[C@H](C)CC[C@]2(C(=O)OC3OC(CO)C(O)C(O)C3O)CC[C@]3(C)C(=CC[C@@H]4[C@@]5(C)C[C@@H](O)[C@@H]6OC(=O)c7cc(O)c(O)c(O)c7-c7c(cc(O)c(O)c7O)C(=O)OC[C@]6(CO)[C@@H]5CC[C@]43C)[C@H]12 (stereo not given in full),TGI,786-0 renal,32.9 µM
same,TGI,HCT-116 colon,> 100 µM
same,TGI,HT29 colon,> 55.8 µM
same,TGI,PC-3 prostate,> 100 µM
same,TGI,M14 melanoma,> 100 µM
same,TGI,SNB-19 CNS,> 77.9 µM
same,TGI,TK-10 renal,> 100 µM
same,TGI,NCI-H226 lung,> 100 µM
same,TGI,DU-145 prostate,> 100 µM
same,TGI,SK-MEL-28 melanoma,> 100 µM
same,TGI,MDA-MB-435,32.9 µM
same,TGI,COLO 205 colon,> 100 µM
same,TGI,MOLT-4 leukemia,66.9 µM
same,TGI,SF-539 CNS,> 100 µM
same,TGI,NCI-H522 lung,37.3 µM
same,TGI,KM12 colon,> 76.3 µM
same,TGI,LOX IMVI melanoma,25.8 µM
same,TGI,OVCAR-5 ovarian,> 100 µM
same,TGI,NCI/ADR-RES ovarian,> 100 µM
same,TGI,MALME-3M melanoma,> 100 µM
same,TGI,RPMI-8226 leukemia,> 100 µM
same,TGI,SN12C renal,> 100 µM
same,TGI,BT-549 breast,> 100 µM
same,TGI,K-562 leukemia,> 100 µM
same,TGI,SF-268 CNS,> 100 µM
same,TGI,HCC-2998 colon,> 100 µM
same,TGI,NCI-H23 lung,> 100 µM
same,TGI,MDA-MB-231 breast,26.4 µM
same,TGI,A549 NSCLC,> 100 µM
same,TGI,SW-620 colon,> 63.3 µM
same,TGI,MCF7 breast,21.8 µM
same,TGI,U251 CNS,34.7 µM
same,TGI,IGROV1 ovarian,> 100 µM
same,TGI,UACC-257 melanoma,> 100 µM
same,TGI,UACC-62 melanoma,> 100 µM
same,TGI,T-47D breast,> 100 µM
same,TGI,OVCAR-4 ovarian,40.1 µM
same,TGI,HL-60(TB) leukemia,87.8 µM
same,TGI,OVCAR-8 ovarian,> 100 µM
same,TGI,ACHN renal,> 100 µM
same,TGI,MDA-N,51.1 µM
same,TGI,HOP-92 NSCLC,> 100 µM
same,TGI,RXF 393 renal,> 100 µM
same,TGI,SK-MEL-5 melanoma,> 100 µM
same,TGI,OVCAR-3 ovarian,> 72.1 µM
same,TGI,SF-295 CNS,> 91 µM
same,TGI,CAKI-1 renal,> 53.3 µM
same,TGI,SR leukemia,73.3 µM
same,TGI,A498 renal,> 100 µM
same,TGI,EKVX NSCLC,> 100 µM
same,TGI,CCRF-CEM leukemia,69.2 µM
same,TGI,HS 578T breast,> 100 µM
same,TGI,SK-MEL-2 melanoma,> 100 µM
same,TGI,SNB-75 CNS,> 100 µM
same,TGI,NCI-H460 lung,> 100 µM
same,TGI,UO-31 renal,> 100 µM
same,TGI,HCT-15 colon,> 100 µM
same,TGI,SK-OV-3 ovarian,> 100 µM
same,TGI,HOP-62 NSCLC,> 71.1 µM
COC(=O)C1(Cc2ccc(C)cc2)Cc2c(C)cccc2C1=O (stereo not given),TGI,786-0 renal,76.8 µM
same,TGI,HCT-116 colon,31.9 µM
same,TGI,HT29 colon,34.2 µM
same,TGI,PC-3 prostate,42 µM
same,TGI,M14 melanoma,> 100 µM
same,TGI,SNB-19 CNS,90.3 µM
same,TGI,TK-10 renal,86.2 µM
same,TGI,NCI-H226 lung,38.4 µM
same,TGI,DU-145 prostate,72 µM
same,TGI,SK-MEL-28 melanoma,> 100 µM
same,TGI,MDA-MB-435,13.2 µM
same,TGI,COLO 205 colon,33.4 µM
same,TGI,MOLT-4 leukemia,> 100 µM
same,TGI,SF-539 CNS,34.5 µM
same,TGI,NCI-H522 lung,42.1 µM
same,TGI,KM12 colon,39.5 µM
same,TGI,LOX IMVI melanoma,38.6 µM
same,TGI,OVCAR-5 ovarian,> 100 µM
same,TGI,NCI/ADR-RES ovarian,80.9 µM
same,TGI,MALME-3M melanoma,30.8 µM
same,TGI,RPMI-8226 leukemia,40.6 µM
same,TGI,SN12C renal,43.4 µM
same,TGI,BT-549 breast,69.7 µM
same,TGI,K-562 leukemia,> 100 µM
same,TGI,SF-268 CNS,> 100 µM
same,TGI,HCC-2998 colon,42.2 µM
same,TGI,NCI-H23 lung,> 100 µM
same,TGI,MDA-MB-231 breast,> 100 µM
same,TGI,A549 NSCLC,54.5 µM
same,TGI,SW-620 colon,> 100 µM
same,TGI,MCF7 breast,28.4 µM
same,TGI,U251 CNS,66.5 µM
same,TGI,IGROV1 ovarian,> 100 µM
same,TGI,UACC-257 melanoma,91.3 µM
same,TGI,UACC-62 melanoma,92 µM
same,TGI,T-47D breast,72.1 µM
same,TGI,OVCAR-4 ovarian,98.9 µM
same,TGI,HL-60(TB) leukemia,25 µM
same,TGI,OVCAR-8 ovarian,> 100 µM
same,TGI,ACHN renal,76.9 µM
same,TGI,MDA-N,14.4 µM
same,TGI,HOP-92 NSCLC,43.9 µM
same,TGI,RXF 393 renal,40.5 µM
same,TGI,SK-MEL-5 melanoma,26.3 µM
same,TGI,OVCAR-3 ovarian,34.5 µM
same,TGI,SF-295 CNS,> 100 µM
same,TGI,CAKI-1 renal,> 100 µM
same,TGI,SR leukemia,50.9 µM
same,TGI,A498 renal,41.8 µM
same,TGI,EKVX NSCLC,> 100 µM
same,TGI,CCRF-CEM leukemia,> 100 µM
same,TGI,HS 578T breast,46.9 µM
same,TGI,SK-MEL-2 melanoma,28.7 µM
same,TGI,SNB-75 CNS,> 100 µM
same,TGI,NCI-H460 lung,39.2 µM
same,TGI,UO-31 renal,> 100 µM
same,TGI,HCT-15 colon,75.9 µM
same,TGI,SK-OV-3 ovarian,> 100 µM
same,TGI,HOP-62 NSCLC,65.5 µM
